# Assay results from patent US9695155B2, “Herbicidal substituted pyrimidinyloxy benzene compounds” (E. I. DU PONT DE NEMOURS AND COMPANY, priority 2013, dated 2017).
# Assays:
# [1] = test system: lambsquarters; experiment: Test C preemergence; type: in vivo, Chenopodium album; details: Chenopodium album, pre-emergence
# In short: (§1)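 Seeds are planted in blended loam soil and sand and treated preemergence, while seedlings in a peat moss/vermiculite medium receive postemergence sprays at 2 to 18 cm height. All plants stay in the greenhouse for 13 to 15 days before visual comparison with controls on a 0–100 scale.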
# [2] = test system: velvetleaf; experiment: Test C preemergence; type: in vivo, Abutilon theophrasti; details: Abutilon theophrasti, pre-emergence
# In short: as §1
# [3] = test system: giant foxtail; experiment: Test A postemergence; type: in vivo, Setaria faberii; details: Setaria faberi, post-emergence, 240 h
# In short: (§2)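 Visual injury scored 0–100 (100 = complete control) against untreated controls about 10 days after treatment in a greenhouse. Test chemicals, formulated with surfactant in non-phytotoxic solvent, were sprayed on soil preemergence or on 2-10 cm, one- to two-leaf plants postemergence.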
# [4] = test system: lambsquarters; experiment: Test C postemergence; type: in vivo, Chenopodium album; details: Chenopodium album, post-emergence
# In short: as §1
# [5] = test system: corn; experiment: Test C preemergence; type: in vivo, Zea mays; details: Zea mays, pre-emergence
# In short: as §1
# [6] = test system: giant foxtail; experiment: Test C postemergence; type: in vivo, Setaria faberii; details: Setaria faberi, post-emergence
# In short: as §1
# [7] = test system: galium; experiment: Test C preemergence; type: in vivo, Galium aparine; details: Galium, pre-emergence
# In short: as §1
# [8] = test system: pigweed; experiment: Test C postemergence; type: in vivo, Amaranthus retroflexus; details: Amaranthus retroflexus, post-emergence
# Text: Seeds of plant species selected from blackgrass (Alopecurus myosuroides), Italian ryegrass (Lolium multiflorum), wheat, winter (winter wheat, Triticum aestivum), galium (catchweed bedstraw, Galium aparine), corn (Zea mays), large (Lg) crabgrass (Digitaria sanguinalis), giant foxtail (Setaria faberii), johnsongrass (Sorghum halepense), lambsquarters (Chenopodium album), morningglory (Ipomoea coccinea), yellow nutsedge (Cyperus esculentus), pigweed (Amaranthus retroflexus), ragweed (common ragweed, Ambrosia elatior), soybean (Glycine max), barnyardgrass (Echinochloa crus-galli), oilseed rape (Brassica napus), waterhemp (common waterhemp, Amaranthus rudis), kochia (Kochia scoparia), wild oat (Avena fatua), surinam grass (Brachiaria decumbens), foxtail, green (green foxtail, Setaria viridis), goosegrass (Eleusine indica), bromegrass, downy (downy bromegrass, Bromus tectorum), nightshade (eastern black nightshade, Solanum ptycanthum), cocklebur (common cocklebur, Xanthium strumarium), cupgrass, woolly (woolly cupgrass, Eriochloa villosa), bermudagrass (Cynodon dactylon), sunflower, (common oilseed sunflower, Helianthus annuus), Russian thistle (Salsola kali), and velvetleaf (Abutilon theophrasti) were planted into a blend of loam soil and sand and treated preemergence with test chemicals formulated in a non-phytotoxic solvent mixture which included a surfactant.
# At the same time, plants selected from these crop and weed species and also barley, winter (winter barley, Hordeum vulgare), windgrass (Apera spica-venti), chickweed (common chickweed, Stellaria media), deadnettle (henbit deadnettle, Lamium amplexicaule), and canarygrass (littleseed canarygrass, Phalaris minor) were planted in pots containing Redi-Earth® planting medium (Scotts Company, 14111 Scottslawn Road, Marysville, Ohio 43041) comprising spaghnum peat moss, vermiculite, wetting agent and starter nutrients and treated with postemergence applications of test chemicals formulated in the same manner. Plants ranged in height from 2 to 18 cm (1- to 4-leaf stage) for postemergence treatments. Treated plants and controls were maintained in a greenhouse for 13 to 15 days, after which time all species were compared to controls and visually evaluated. Plant response ratings, summarized in Table C, are based on a scale of 0 to 100 where 0 is no effect and 100 is complete control. A dash (-) response means no test result.
# [9] = test system: wheat; experiment: Test A preemergence; type: in vivo, Triticum aestivum; details: Triticum aestivum, pre-emergence, 240 h, read-out: Wheat plant response rating
# In short: as §2
structure (smiles),measurement,setting,value
"Clc1cnc(Oc2ccccc2-n2cc(Br)cn2)nc1 [Compound 7, 2-[2-(4-bromo-1H-pyrazol-1-yl)phenoxy]-5-chloropyrimidine]",pest or weed control at 250 g/ha,"[1]; 250 g ai/ha, preemergence, scale 0 (no effect) to 100 (complete control), read-out: Lambsquarters plant response rating",95%
same,pest or weed control at 31 g/ha,"[1]; Preemergence, 31 g ai/ha, scale 0 to 100, 0 no effect, 100 complete control, read-out: Plant response rating, Lambsquarters",80%
same,pest or weed control at 62 g/ha,"[2]; 62 g ai/ha, preemergence, scale 0 (no effect) to 100 (complete control), read-out: Velvetleaf plant response rating",100%
same,pest or weed control at 125 g/ha,"[2]; 125 g ai/ha, preemergence, scale 0 (no effect) to 100 (complete control), read-out: Velvetleaf plant response rating",100%
same,pest or weed control at 250 g/ha,"[2]; 250 g ai/ha, preemergence, scale 0 (no effect) to 100 (complete control), read-out: Velvetleaf plant response rating",100%
same,pest or weed control at 31 g/ha,"[2]; Preemergence, 31 g ai/ha, scale 0 to 100, 0 no effect, 100 complete control, read-out: Plant response rating, Velvetleaf",40%
same,pest or weed control at 125 g/ha,"[3]; 125 g ai/ha, 0 to 100 scale where 0 is no effect and 100 is complete control, read-out: Plant response rating, Foxtail, Giant",90%
same,pest or weed control at 500 g/ha,"[3]; 500 g ai/ha, 0 to 100 scale, 0 no effect, 100 complete control, read-out: Plant response rating Foxtail, Giant",100%
same,pest or weed control at 125 g/ha,"[4]; 125 g ai/ha, postemergence, read-out: Plant response rating (0 to 100), Lambsquarters",98%
same,pest or weed control at 250 g/ha,"[4]; 250 g ai/ha, postemergence, read-out: Plant response rating (0 to 100), Lambsquarters",98%
same,pest or weed control at 31 g/ha,"[4]; Postemergence, 31 g ai/ha, scale 0 to 100 (0 no effect, 100 complete control), 13 to 15 days, read-out: Plant response rating, Lambsquarters",60%
same,pest or weed control at 62 g/ha,"[4]; Postemergence, 62 g ai/ha, scale 0 to 100 (0 no effect, 100 complete control), read-out: Plant response rating, Lambsquarters",98%
same,plant injury at 62 g/ha,"[5]; 62 g ai/ha, preemergence, scale 0 (no effect) to 100 (complete control), read-out: Corn plant response rating",5%
same,plant injury at 125 g/ha,"[5]; 125 g ai/ha, preemergence, scale 0 (no effect) to 100 (complete control), read-out: Corn plant response rating",5%
same,plant injury at 250 g/ha,"[5]; 250 g ai/ha, preemergence, scale 0 (no effect) to 100 (complete control), read-out: Corn plant response rating",5%
same,"Corn plant response rating (crop injury, 0 = no effect, 100 = complete kill) at 31 g/ha","[5]; Preemergence, 31 g ai/ha, scale 0 to 100, 0 no effect, 100 complete control",0%
same,pest or weed control at 125 g/ha,"[6]; 125 g ai/ha, postemergence, read-out: Plant response rating (0 to 100), Foxtail, Giant",10%
same,pest or weed control at 250 g/ha,"[6]; 250 g ai/ha, postemergence, read-out: Plant response rating (0 to 100), Foxtail, Giant",10%
same,pest or weed control at 31 g/ha,"[6]; Postemergence, 31 g ai/ha, scale 0 to 100 (0 no effect, 100 complete control), 13 to 15 days, read-out: Plant response rating, Foxtail, Giant",0%
same,pest or weed control at 62 g/ha,"[6]; Postemergence, 62 g ai/ha, scale 0 to 100 (0 no effect, 100 complete control), read-out: Plant response rating, Foxtail, Giant",5%
same,pest or weed control at 62 g/ha,"[7]; 62 g ai/ha, preemergence, scale 0 (no effect) to 100 (complete control), read-out: Galium plant response rating",100%
same,pest or weed control at 125 g/ha,"[7]; 125 g ai/ha, preemergence, scale 0 (no effect) to 100 (complete control), read-out: Galium plant response rating",100%
same,pest or weed control at 250 g/ha,"[7]; 250 g ai/ha, preemergence, scale 0 (no effect) to 100 (complete control), read-out: Galium plant response rating",100%
same,pest or weed control at 31 g/ha,"[7]; Preemergence, 31 g ai/ha, scale 0 to 100, 0 no effect, 100 complete control, read-out: Plant response rating, Galium",85%
same,pest or weed control at 125 g/ha,"[8]; 125 g ai/ha, postemergence, read-out: Plant response rating (0 to 100), Pigweed",100%
same,pest or weed control at 250 g/ha,"[8]; 250 g ai/ha, postemergence, read-out: Plant response rating (0 to 100), Pigweed",100%
same,pest or weed control at 31 g/ha,"[8]; Postemergence, 31 g ai/ha, scale 0 to 100 (0 no effect, 100 complete control), 13 to 15 days, read-out: Plant response rating, Pigweed",100%
same,pest or weed control at 62 g/ha,"[8]; Postemergence, 62 g ai/ha, scale 0 to 100 (0 no effect, 100 complete control), read-out: Plant response rating, Pigweed",100%
same,plant injury at 125 g/ha,"[9]; 125 g ai/ha, 0 to 100 scale where 0 is no effect and 100 is complete control",0%
same,plant injury at 500 g/ha,"[9]; 500 g ai/ha, 0 to 100 scale, 0 no effect, 100 complete control, approx. 10 days",20%
